Patent US9708314B2, “Heterocyclic amide compound” (NISSAN CHEMICAL INDUSTRIES, LTD., priority 2013, dated 2017)

Legend:
Type in all cases: in vivo
[1] = test system: Echinochloa oryzacola Vasing.; experiment: Test Example 2: herbicidal activity, application during weed generation in submerged conditions; details: Eighteenth Table; application herbicide amount 320 g/ha
Method in brief: (§1)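 Seeds were sown together in alluvial soil kept under 4 cm of water and grown at 25 °C to 30 °C. Once plants reached the one- to two-leaf stage, the diluted emulsion was applied to the water surface at a predetermined g/ha amount, and effects were rated 0–5 after three weeks.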

Monochoria vaginalis = experiment: as above; details: Eighteenth Table; application herbicide amount 320 g/ha
Method in brief: as §1

Scirpus juncoides = experiment: as above; details: Eighteenth Table; application herbicide amount 320 g/ha
Method in brief: as §1

Abutilon theophrasti = experiment: Test Example 4: herbicidal effect by application to foliage (diluvial soil, plastic box); details: foliage application, 320 g/ha
Method in brief: (§2)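 Greenhouse plants (25° C. to 30° C., 14 d, diluvial soil) receive a foliar spray of water-diluted emulsifiable formulation at defined g/ha. Grading after 3 weeks uses a six-step herbicidal-ratio scale, with 4 covering 70% to <90% and 1 covering 5% to <20%.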

Alopecurus myosuroides = experiment: as above; details: foliage application, 320 g/ha
Method in brief: as §2

Amaranthus retroflexus = experiment: as above; details: foliage application, 320 g/ha
Method in brief: as §2

Apera spica-venti. = experiment: as above; details: foliage application, 320 g/ha
Method in brief: as §2

Avena fatua = experiment: as above; details: foliage application, 320 g/ha
Method in brief: as §2

Chenopodium album = experiment: as above; details: foliage application, 320 g/ha
Method in brief: as §2

Digitaria ciliaris = experiment: as above; details: foliage application, 320 g/ha
Method in brief: as §2

[2] = test system: Echinochloa crus-galli var. crus-galli; experiment: as above; details: foliage application, 320 g/ha
Method in brief: as §2

Galium spurium = experiment: as above; details: foliage application, 320 g/ha
Method in brief: as §2

Lolium multiflorum Lam. = experiment: as above; details: foliage application, 320 g/ha
Method in brief: as §2

Setaria viridis = experiment: as above; details: foliage application, 320 g/ha
Method in brief: as §2

Stellaria media = experiment: as above; details: foliage application, 320 g/ha
Method in brief: as §2

Veronica persica = experiment: as above; details: foliage application, 320 g/ha
Method in brief: as §2

[3] = test system: Beta vulgaris ssp. vulgaris; experiment: Test Example 4: effect on crop by application to foliage (diluvial soil, plastic box); details: foliage application, 320 g/ha
Method in brief: as §2

Brassica campestris L. = experiment: as above; details: foliage application, 320 g/ha
Method in brief: as §2

Glycine max = experiment: as above; details: foliage application, 320 g/ha
Method in brief: as §2

Triticum aestivum = experiment: as above; details: foliage application, 320 g/ha
Method in brief: as §2

Zea mays = experiment: as above; details: foliage application, 320 g/ha
Method in brief: as §2

[4] = test system: directly sowed Oryza sativa; experiment: as above; details: foliage application, 320 g/ha
Method in brief: as §2

With COc1cccc(-c2nnc3c(C(=O)Nc4nnnn4C)ccc(C(F)(F)F)n23)c1 [2-044] the “A (Echinochloa oryzicola Vasing.) herbicidal ratio grade” value [1] was 5 (Herbicidal ratio of 90% or more (almost completely withered)), the “C (Monochoria vaginalis) herbicidal ratio grade” value (Monochoria vaginalis) was 4 (Herbicidal ratio of 70% or more and less than 90%) and the “B (Scirpus juncoides) herbicidal ratio grade” value (Scirpus juncoides) was 4 (Herbicidal ratio of 70% or more and less than 90%). For the same compound, the “M (Abutilon theophrasti) herbicidal effect grade” value (Abutilon theophrasti) was 5 (Herbicidal ratio of 90% or more (almost completely withered)), the “J (Alopecurus myosuroides) herbicidal effect grade” value (Alopecurus myosuroides) was 2 (Herbicidal ratio of 20% or more and less than 40%) and the “N (Amaranthus retroflexus) herbicidal effect grade” value (Amaranthus retroflexus) was 5 (Herbicidal ratio of 90% or more (almost completely withered)). The “L (Apera spica-venti.) herbicidal effect grade” value (Apera spica-venti.) was 3 (Herbicidal ratio of 40% or more and less than 70%), the “I (Avena fatua) herbicidal effect grade” value (Avena fatua) was 2 (Herbicidal ratio of 20% or more and less than 40%) and the “O (Chenopodium album) herbicidal effect grade” value (Chenopodium album) was 5 (Herbicidal ratio of 90% or more (almost completely withered)). For the same compound, the “F (Digitaria ciliaris) herbicidal effect grade” value (Digitaria ciliaris) was 5 (Herbicidal ratio of 90% or more (almost completely withered)), the “H (Echinochloa crus-galli var. crus-galli) herbicidal effect grade” value [2] was 5 (Herbicidal ratio of 90% or more (almost completely withered)) and the “Q (Galium spurium) herbicidal effect grade” value (Galium spurium) was 3 (Herbicidal ratio of 40% or more and less than 70%). The “K (Lolium multiflorum Lam.) herbicidal effect grade” value (Lolium multiflorum Lam.) was 2 (Herbicidal ratio of 20% or more and less than 40%), the “G (Setaria viridis) herbicidal effect grade” value (Setaria viridis) was 4 (Herbicidal ratio of 70% or more and less than 90%) and the “P (Stellaria media) herbicidal effect grade” value (Stellaria media) was 4 (Herbicidal ratio of 70% or more and less than 90%). For the same compound, the “R (Veronica persica) herbicidal effect grade” value (Veronica persica) was 5 (Herbicidal ratio of 90% or more (almost completely withered)), the “f (Beta vulgaris ssp. vulgaris) effect on crop grade” value [3] was 5 (Herbicidal ratio of 90% or more (almost completely withered)) and the “g (Brassica campestris L.) effect on crop grade” value (Brassica campestris L.) was 3 (Herbicidal ratio of 40% or more and less than 70%). The “c (Glycine max) effect on crop grade” value (Glycine max) was 2 (Herbicidal ratio of 20% or more and less than 40%), the “e (Triticum aestivum) effect on crop grade” value (Triticum aestivum) was 1 (Herbicidal ratio of 5% or more and less than 20%) and the “b (Zea mays) effect on crop grade” value (Zea mays) was 3 (Herbicidal ratio of 40% or more and less than 70%). The “d (directly sowed Oryza sativa) effect on crop grade” value [4] was 4 (Herbicidal ratio of 70% or more and less than 90%).

In the case of COc1ccccc1-c1nnc2c(C(=O)Nc3nnnn3C)ccc(C(F)(F)F)n12 [2-045], the “A (Echinochloa oryzicola Vasing.) herbicidal ratio grade” value [1] is reported as 5 (Herbicidal ratio of 90% or more (almost completely withered)), the “C (Monochoria vaginalis) herbicidal ratio grade” value (Monochoria vaginalis) is reported as 4 (Herbicidal ratio of 70% or more and less than 90%) and the “B (Scirpus juncoides) herbicidal ratio grade” value (Scirpus juncoides) is reported as 3 (Herbicidal ratio of 40% or more and less than 70%). The “M (Abutilon theophrasti) herbicidal effect grade” value (Abutilon theophrasti) was 5 (Herbicidal ratio of 90% or more (almost completely withered)), the “J (Alopecurus myosuroides) herbicidal effect grade” value (Alopecurus myosuroides) was 1 (Herbicidal ratio of 5% or more and less than 20%) and the “N (Amaranthus retroflexus) herbicidal effect grade” value (Amaranthus retroflexus) was 5 (Herbicidal ratio of 90% or more (almost completely withered)). The “L (Apera spica-venti.) herbicidal effect grade” value (Apera spica-venti.) was 3 (Herbicidal ratio of 40% or more and less than 70%), the “I (Avena fatua) herbicidal effect grade” value (Avena fatua) was 2 (Herbicidal ratio of 20% or more and less than 40%) and the “O (Chenopodium album) herbicidal effect grade” value (Chenopodium album) was 5 (Herbicidal ratio of 90% or more (almost completely withered)). The “F (Digitaria ciliaris) herbicidal effect grade” value (Digitaria ciliaris) was 5 (Herbicidal ratio of 90% or more (almost completely withered)), the “H (Echinochloa crus-galli var. crus-galli) herbicidal effect grade” value [2] was 5 (Herbicidal ratio of 90% or more (almost completely withered)) and the “Q (Galium spurium) herbicidal effect grade” value (Galium spurium) was 3 (Herbicidal ratio of 40% or more and less than 70%). For the same compound, the “K (Lolium multiflorum Lam.) herbicidal effect grade” value (Lolium multiflorum Lam.) was 1 (Herbicidal ratio of 5% or more and less than 20%), the “G (Setaria viridis) herbicidal effect grade” value (Setaria viridis) was 4 (Herbicidal ratio of 70% or more and less than 90%) and the “P (Stellaria media) herbicidal effect grade” value (Stellaria media) was 5 (Herbicidal ratio of 90% or more (almost completely withered)). The “R (Veronica persica) herbicidal effect grade” value (Veronica persica) was 5 (Herbicidal ratio of 90% or more (almost completely withered)), the “f (Beta vulgaris ssp. vulgaris) effect on crop grade” value [3] was 5 (Herbicidal ratio of 90% or more (almost completely withered)) and the “g (Brassica campestris L.) effect on crop grade” value (Brassica campestris L.) was 5 (Herbicidal ratio of 90% or more (almost completely withered)). For the same compound, the “c (Glycine max) effect on crop grade” value (Glycine max) was 3 (Herbicidal ratio of 40% or more and less than 70%), the “e (Triticum aestivum) effect on crop grade” value (Triticum aestivum) was 1 (Herbicidal ratio of 5% or more and less than 20%) and the “b (Zea mays) effect on crop grade” value (Zea mays) was 4 (Herbicidal ratio of 70% or more and less than 90%). The “d (directly sowed Oryza sativa) effect on crop grade” value [4] was 4 (Herbicidal ratio of 70% or more and less than 90%).
